# Like-named read-outs stand apart in the source and are kept apart here.
# Test system: E. multilocularis metacestodes
# Test: PGI-assay: drug-induced damage on in vitro cultured metacestodes (Pathogen Box screening cascade and EC50)
# Type: cell-based, Echinococcus multilocularis
# Conditions: for PGI release, % of the Tx-100 control, 5d / PGI release, % of the Tx-100 control, 12d / cytotoxicity at 10 µM: 10 µM, singlets; for cytotoxicity at 10 µM / PGI release, % of Tx-100 control at 10 µM: Echinococcus multilocularis
# [1] = 120 h, 5 days of incubation, read-out: PGI release, % of the Tx-100 control, 5d
# [2] = 288 h, 12 days of incubation, read-out: PGI release, % of the Tx-100 control, 12d
# [3] = confirmatory screening at 10 µM in triplicates, 5 days of incubation, values as % of Tx-100 control
# [4] = confirmatory screening at 10 µM in triplicates, 12 days of incubation, values as % of Tx-100 control
Compound,"PGI release, % of the Tx-100 control, 5d (5 days of incubation) [%]","PGI release, % of the Tx-100 control, 12d (12 days of incubation) [%]",also measured
CC(Oc1cccc(Cl)c1)C(=O)Nc1ccc2oc(-c3ccncc3)nc2c1 (stereo not drawn) [MMV688472],-0.36,0.44,
CCn1ncc2c(NC3CCOCC3)c(CNC(=O)c3ccnn3C)c(C)nc21 [MMV026356],-0.13,0.36,
CN(C)c1cc(NC(=O)Nc2ccccc2)c2ccccc2n1 [MMV006901],13.97,19.56,
"CC(=O)NC[C@H]1CN(c2ccc(N3CCOCC3)c(F)c2)C(=O)O1 [MMV687803, Linezolid, reference compound]",,,cytotoxicity at 10 µM [1]: -0.58%; cytotoxicity at 10 µM [2]: 0.38%
"CC1CS(=O)(=O)CCN1/N=C/c1ccc([N+](=O)[O-])o1 (stereo not drawn) [MMV001499, Nifurtimox, reference compound]",,,cytotoxicity at 10 µM [1]: 2.54%; cytotoxicity at 10 µM [2]: 3.97%
CCC(=O)Nc1ccccc1C(=O)Nc1ccccn1 [MMV202553],-0.91,0.26,
Cc1[nH]c2ccccc2c1C(c1cccs1)N1CCN(C)CC1 (stereo not drawn) [MMV688768],19.18,27.24,"PGI release, % of Tx-100 control, average, 5d [3]: 5.02%; PGI release, % of Tx-100 control, average, 12d [4]: 7.48%"
O=C1N(Cc2cc3ccccc3s2)CC2CN(Cc3ccccc3)CCN12 (stereo not drawn) [MMV084603],-3.64,0.62,
O=C(Nc1ccc(F)c(-c2nc3ncc(-c4ccccc4)cc3[nH]2)c1)N1CCCC1 [MMV688372],1.21,0.82,
CNC(=O)C1Cc2c([nH]c3cc(Cl)ccc23)C2(CCN(CCc3ccccc3)CC2)N1 (stereo not drawn) [MMV031011],4.51,91.49,"PGI release, % of Tx-100 control, average, 5d [3]: -0.91%; PGI release, % of Tx-100 control, average, 12d [4]: -1.45%"
COc1cc(CN2CCC3(C=Cc4ccccc43)CC2)cc2c1OCO2 [MMV688941],-0.50,-0.49,
Cc1cc2nc(NC(=O)C(C)(C)C)nc(Cl)c2n1Cc1ccc(Cl)cc1 [MMV688704],5.09,-0.53,
O=C(Nc1ccccc1)c1ccc(-c2cc3ccncc3cc2OC2CCNCC2)s1 [MMV024035],1.01,1.04,
CNC(=O)C1Cc2ccccc2N1C(=O)Cc1ccc(F)cc1 (stereo not drawn) [MMV188296],-0.45,-0.28,
"CC(C)/N=c1\cc2n(-c3ccc(Cl)cc3)c3ccccc3nc-2cc1Nc1ccc(Cl)cc1 [MMV687800, Clofazimine, reference compound]",,,"cytotoxicity at 10 µM [1]: 26.6%; PGI release, % of Tx-100 control at 10 µM (120 h, confirmatory screening at 10 µM in triplicates, 5 days of incubation, values as % of Tx-100 control, read-out: PGI release, % of Tx-100 control, average, 5d): -0.59%; cytotoxicity at 10 µM [2]: 65.6%; PGI release, % of Tx-100 control at 10 µM (288 h, confirmatory screening at 10 µM in triplicates, 12 days of incubation, values as % of Tx-100 control, read-out: PGI release, % of Tx-100 control, average, 12d): 3.89%"
O=C(NCc1nnc2n1CCCCC2)c1ccc(-c2ccc(F)cc2)o1 [MMV688796],-0.28,-3.38,
NS(=O)(=O)c1cccc(-c2ccc3ncc(N4CCOCC4)nc3c2)c1 [MMV023860],-0.05,-0.27,
"O=[N+]([O-])c1cn2c(n1)OC[C@@H](OCc1ccc(OC(F)(F)F)cc1)C2 [MMV688755, Pretomanid, reference compound]",,,cytotoxicity at 10 µM [1]: -0.93%; cytotoxicity at 10 µM [2]: -1.01%
COc1ccc(-c2nn(C(C)C)c3ncnc(N)c23)cc1OC [MMV675993],-5.16,-3.42,
"CO[C@@H](C(=O)N1Cc2n[nH]c(NC(=O)c3ccc(N4CCN(C)CC4)cc3)c2C1)c1ccccc1 [MMV676600, Danusertib, reference compound]",,,cytotoxicity at 10 µM [1]: -0.38%; cytotoxicity at 10 µM [2]: -0.2%
"CON=C(C(=O)OC)c1ccccc1CON=C(C)c1cccc(C(F)(F)F)c1 [MMV688754, Trifloxystrobin]",,,cytotoxicity at 10 µM [1]: -1.92%; cytotoxicity at 10 µM [2]: -5.74%
N#Cc1nc(-c2ccccc2)oc1S(=O)(=O)c1ccc(Cl)cc1 [MMV676412],0.33,0.62,
CCc1c(C)nc(-n2nc(C)cc2NC(=O)c2ccccc2SC)[nH]c1=O [MMV676477],-3.90,30.66,"PGI release, % of Tx-100 control, average, 5d [3]: -0.18%; PGI release, % of Tx-100 control, average, 12d [4]: 2.18%"
Clc1ccc(CCNc2cc(-c3ccccc3)nc3ncnn23)cc1 [MMV688889],-3.56,-0.70,
Cc1cc2ccccc2n1CC(=O)N1CC(C(=O)N2CCCCC2)Oc2ccccc21 (stereo not drawn) [MMV020520],-0.40,-0.48,

Compound,"PGI release, % of the Tx-100 control, 5d (5 days of incubation) [%]","PGI release, % of the Tx-100 control, 12d (12 days of incubation) [%]",also measured
CC(C)(C)CN1C(=O)C(c2ccccc2)(c2ccccc2)N=C1N [MMV026550],3.21,3.61,
Cc1cc(Cl)c(S(=O)(=O)N2CCCC2)cc1OCC(=O)NC1CCCCC1 [MMV006833],0.0374,-0.28,
Cc1cccc(C(=O)Nc2ccnc(N(C)C3CCN(CC(C)C)CC3)c2)c1 [MMV024829],0.62,-0.07,
O=C(Nc1nnc(-c2ccc(Cl)s2)o1)c1ccc(Cl)s1 [MMV676501],1.15,0.52,
COc1ccccc1CNC(=O)c1cc(C2CC2)nc2c1cnn2C(C)C [MMV020517],-0.60,-1.00,
Cc1cc(C)n2nc(C(=O)Nc3cc(C(F)(F)F)ccc3N3CCOCC3)nc2n1 [MMV019087],-0.91,-0.17,
NCC(c1cccs1)S(=O)(=O)c1ccccc1 (stereo not drawn) [MMV688557],0.26,-2.41,
Cc1cc(=O)[nH]c(-n2nc(C)cc2C)n1 [MMV393995],-1.49,-4.16,
O=C(COc1cccc(F)c1)Nc1nc(-c2ccccn2)cs1 [MMV676409],-3.57,-0.58,
CC(Oc1ccccc1)C(=O)Nc1nc(-c2ccccn2)cs1 (stereo not drawn) [MMV676411],0.12,0.11,
O=C(NC1CCCCC1)N1CCN(Cc2ccc3c(c2)OCO3)CC1 [MMV676444],-3.25,1.66,
N#Cc1ccc(-c2ccc(OCC(N)=O)cc2)cc1 [MMV053220],-4.06,-1.40,
O=C1O[C@@H](CO)CN1c1cc(F)c(C2=CCN(Cc3ccccc3)CC2)c(F)c1 [MMV687729],-0.40,-0.63,
CCOc1ccc(OCC(=O)Nc2cc(C)cc(C)c2)cc1 [MMV676470],-0.69,-0.73,
CC(C(=O)Nc1ccc2oc(-c3ccncc3)nc2c1)c1ccccc1 (stereo not drawn) [MMV688471],-1.25,5.56,
"Levofloxacin (-)-ofloxacin [MMV687798, reference compound]",-0.0541,-0.33,
COc1cc(NC(=O)Cc2nn(C)c(=O)c3ccccc23)ccc1Cl [MMV676053],-2.85,-1.21,
CC(C)(C)OC(=O)N1CCC(Cn2nc(-c3cnc4ccccc4c3)c3c(N)ncnc32)CC1 [MMV688364],0.11,-0.13,
O=C(Nc1cnc2ccccc2c1)c1cccc(-n2cnnn2)c1 [MMV084864],-2.18,-3.92,
"C[C@H]1c2cccc(O)c2C(=O)C2=C(O)[C@]3(O)C(=O)C(C(N)=O)=C(O)[C@@H](N(C)C)[C@@H]3[C@@H](O)[C@@H]21 [MMV000011, Doxycycline, reference compound]",,,cytotoxicity at 10 µM [1]: 3.26%; cytotoxicity at 10 µM [2]: -0.0343%
CN1CCN(S(=O)(=O)c2ccc(-c3ccc4c(Nc5ccc6n[nH]nc6c5)ccnc4c3)cc2)CC1 [MMV687246],-0.71,-0.69,
Cc1cc(C2=NOC(c3cc(Cl)c(F)c(Cl)c3)(C(F)(F)F)C2)ccc1C(=O)NCc1ccc2c(c1)C(C)(C)OB2O (stereo not drawn) [MMV687776],0.60,2.49,
"CCN(CC)C(=O)N1CCN(C)CC1 [MMV002816, Diethylcarbamazine, reference compound]",,,cytotoxicity at 10 µM [1]: -0.92%; cytotoxicity at 10 µM [2]: -1.56%
OCc1ccc(-c2cncc(Nc3cccc(Cl)c3)c2)cc1 [MMV026468],9.97,54.98,"PGI release, % of Tx-100 control, average, 5d (1 µM, triplicates, 5 days of incubation): 0.57%; PGI release, % of Tx-100 control, average, 12d (1 µM, triplicates, 12 days of incubation): -1.50%; activity in the screen at 10 μM (confirmed in triplicates, >20% relative PGI release) (10 μM, 5 and 12 days): active; PGI release, % of Tx-100 control, average, 5d [3]: 0.62%; PGI release, % of Tx-100 control, average, 12d [4]: 52.89%"
